How the values were obtained:
Assay type in all cases: functional
Sordaria fimicola = assay: Antifungal activity against Sordaria fimicola NRRL 6459 assessed as reduction in radical growth at 200 ug/disk by centerpoint inoculation disk assay; design: scale not given: the % may be the effect or the level left
Bacillus subtilis = assay: […] activity against Bacillus subtilis ATCC 6051 at 200 ug/disk by standard disk assay; conditions: read-out: IZ
Staphylococcus aureus = assay: […] activity against Staphylococcus aureus ATCC 29213 at 200 ug/disk by standard disk assay; conditions: read-out: IZ
Ascobolus = assay: Antifungal activity against Ascobolus furfuraceus NRRL 6460 assessed as reduction in radical growth at 200 ug/disk by centerpoint inoculation disk assay; design: scale not given: the % may be the effect or the level left

## COC(=O)c1cc(OC)cc(O)c1C(=O)c1c(O)cc2cc(C)oc(=O)c2c1O [CERCOPHORIN A]
Sordaria fimicola
  Activity: 34%
Bacillus subtilis
  zone of inhibition at 200 µg/disc: 26 mm
Staphylococcus aureus
  zone of inhibition at 200 µg/disc: 16 mm

## COC(=O)c1cc(OC)cc(OC(=O)c2c(O)cc3cc(C)oc(=O)c3c2O)c1O [CERCOPHORIN B]
Sordaria fimicola
  Activity: 10%

## COC(=O)c1cc(OC)cc(O)c1OC(=O)c1c(O)cc2cc(C)oc(=O)c2c1O [CERCOPHORIN C]
Sordaria fimicola
  Activity: 51%

## Cc1oc(=O)c2c(O)cc(O)c(C)c2c1C [DECARBOXYCITRINONE]
Sordaria fimicola
  Activity: 100%
Ascobolus
  Activity: 100%

Source: ChEMBL document CHEMBL1158261, “Cercophorins A-C: novel antifungal and cytotoxic metabolites from the coprophilous fungus Cercophora areolata” (1996)
